Tests used:
[1] = biological target: T1, Serine/threonine-protein kinase 17A (Homo sapiens) (UniProt Q9UEE5); assay: Inhibition of human recombinant DRAK1 at 40 nM related to control ULK1
T1 sequence (whole entry): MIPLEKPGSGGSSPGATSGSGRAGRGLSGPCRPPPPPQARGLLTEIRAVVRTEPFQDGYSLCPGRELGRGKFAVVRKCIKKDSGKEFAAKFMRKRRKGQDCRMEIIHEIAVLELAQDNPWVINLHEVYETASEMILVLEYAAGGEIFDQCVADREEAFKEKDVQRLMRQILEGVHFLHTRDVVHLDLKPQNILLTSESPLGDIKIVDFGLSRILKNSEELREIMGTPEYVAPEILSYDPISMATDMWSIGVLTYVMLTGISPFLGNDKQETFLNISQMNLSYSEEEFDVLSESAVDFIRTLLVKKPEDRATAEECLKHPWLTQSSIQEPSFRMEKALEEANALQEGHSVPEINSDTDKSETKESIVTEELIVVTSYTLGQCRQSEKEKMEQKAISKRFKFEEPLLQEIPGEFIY

[2] = biological target: Tyrosine-protein kinase HCK (Homo sapiens) (UniProt P08631); assay: Inhibition of human recombinant HCK at 40 nM related to control ULK1
[3] = biological target: Homeodomain-interacting protein kinase 1 (Homo sapiens) (UniProt Q86Z02); assay: Inhibition of human recombinant HIPK1 at 15 nM in presence of ATP by radiometric assay relative to control
[4] = biological target: Tyrosine-protein kinase Lyn (Homo sapiens) (UniProt P07948); assay: Inhibition of human recombinant LYN at 15 nM related to control ULK1
[5] = biological target: Mitogen-activated protein kinase 9 (Homo sapiens) (UniProt P45984); assay: Inhibition of human recombinant JNK2 at 15 nM related to control ULK1
[6] = biological target: T2, Myosin-IIIb (Homo sapiens) (UniProt Q8WXR4); assay: Inhibition of human recombinant MYO3B at 500 nM in presence of ATP by radiometric assay relative to control
T2 sequence (whole entry): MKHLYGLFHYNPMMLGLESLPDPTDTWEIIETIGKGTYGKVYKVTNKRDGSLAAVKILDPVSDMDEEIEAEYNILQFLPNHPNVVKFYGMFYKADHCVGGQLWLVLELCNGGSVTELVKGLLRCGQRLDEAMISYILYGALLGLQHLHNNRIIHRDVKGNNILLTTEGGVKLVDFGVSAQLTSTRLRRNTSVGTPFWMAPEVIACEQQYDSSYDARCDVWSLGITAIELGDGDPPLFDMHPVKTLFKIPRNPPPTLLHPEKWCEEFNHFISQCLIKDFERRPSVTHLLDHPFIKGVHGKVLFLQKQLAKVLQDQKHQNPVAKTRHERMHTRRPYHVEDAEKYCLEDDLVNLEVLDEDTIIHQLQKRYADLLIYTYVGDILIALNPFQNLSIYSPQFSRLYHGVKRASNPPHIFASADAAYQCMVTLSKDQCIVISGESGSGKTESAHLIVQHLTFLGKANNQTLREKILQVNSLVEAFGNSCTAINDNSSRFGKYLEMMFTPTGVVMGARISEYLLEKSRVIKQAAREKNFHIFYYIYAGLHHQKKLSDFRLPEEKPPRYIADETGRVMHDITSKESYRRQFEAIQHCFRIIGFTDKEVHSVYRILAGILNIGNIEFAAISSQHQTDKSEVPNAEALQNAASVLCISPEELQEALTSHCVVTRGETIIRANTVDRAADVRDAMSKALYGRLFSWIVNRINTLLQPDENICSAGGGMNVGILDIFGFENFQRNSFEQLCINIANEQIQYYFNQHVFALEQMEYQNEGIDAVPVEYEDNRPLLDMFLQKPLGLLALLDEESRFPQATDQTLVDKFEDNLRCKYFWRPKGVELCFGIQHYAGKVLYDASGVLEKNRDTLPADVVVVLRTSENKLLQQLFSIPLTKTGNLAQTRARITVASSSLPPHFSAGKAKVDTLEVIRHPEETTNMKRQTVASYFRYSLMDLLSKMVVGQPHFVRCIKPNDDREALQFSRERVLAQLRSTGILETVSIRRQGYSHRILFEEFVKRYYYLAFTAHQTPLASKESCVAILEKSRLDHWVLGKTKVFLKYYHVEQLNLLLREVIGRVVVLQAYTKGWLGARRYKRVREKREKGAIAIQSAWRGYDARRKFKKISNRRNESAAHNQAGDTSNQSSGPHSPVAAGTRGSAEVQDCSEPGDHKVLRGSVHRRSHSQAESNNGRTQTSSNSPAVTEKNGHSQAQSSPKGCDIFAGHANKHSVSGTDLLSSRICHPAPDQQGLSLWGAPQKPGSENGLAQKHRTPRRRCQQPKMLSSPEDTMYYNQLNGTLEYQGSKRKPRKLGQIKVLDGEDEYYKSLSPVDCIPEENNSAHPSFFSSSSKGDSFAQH

[7] = biological target: Macrophage-stimulating protein receptor (Homo sapiens) (UniProt Q04912); assay: Inhibition of human recombinant RON at 500 nM in presence of ATP by radiometric assay relative to control
[8] = biological target: Transient receptor potential cation channel subfamily M member 7 (Homo sapiens) (UniProt Q96QT4); assay: Inhibition of human recombinant ChaK1 at 500 nM related to control ULK1
[9] = biological target: Wee1-like protein kinase 2 (Homo sapiens) (UniProt P0C1S8); assay: Inhibition of human recombinant Wee1B at 500 nM in presence of ATP by radiometric assay relative to control
Wee1-like protein kinase 2 (Homo sapiens), sequence (P0C1S8 whole entry, looked up): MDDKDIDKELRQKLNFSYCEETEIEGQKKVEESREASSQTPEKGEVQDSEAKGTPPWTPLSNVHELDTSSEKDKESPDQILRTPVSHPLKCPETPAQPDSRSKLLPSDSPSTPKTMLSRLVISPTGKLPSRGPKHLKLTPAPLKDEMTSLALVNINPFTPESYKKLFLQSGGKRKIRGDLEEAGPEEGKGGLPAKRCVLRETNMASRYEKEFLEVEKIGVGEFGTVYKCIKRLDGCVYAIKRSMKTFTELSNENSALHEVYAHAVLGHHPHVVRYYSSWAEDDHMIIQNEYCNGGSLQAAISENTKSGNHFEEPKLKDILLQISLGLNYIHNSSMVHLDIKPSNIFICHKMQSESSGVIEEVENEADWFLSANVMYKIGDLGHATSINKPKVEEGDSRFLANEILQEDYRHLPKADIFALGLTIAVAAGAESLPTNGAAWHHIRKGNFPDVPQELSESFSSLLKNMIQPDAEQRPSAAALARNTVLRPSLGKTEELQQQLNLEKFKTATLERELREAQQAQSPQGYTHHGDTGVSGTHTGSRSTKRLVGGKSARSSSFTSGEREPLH

Tyrosine-protein kinase Lyn (Homo sapiens), sequence (P07948 2-512 limits assumed): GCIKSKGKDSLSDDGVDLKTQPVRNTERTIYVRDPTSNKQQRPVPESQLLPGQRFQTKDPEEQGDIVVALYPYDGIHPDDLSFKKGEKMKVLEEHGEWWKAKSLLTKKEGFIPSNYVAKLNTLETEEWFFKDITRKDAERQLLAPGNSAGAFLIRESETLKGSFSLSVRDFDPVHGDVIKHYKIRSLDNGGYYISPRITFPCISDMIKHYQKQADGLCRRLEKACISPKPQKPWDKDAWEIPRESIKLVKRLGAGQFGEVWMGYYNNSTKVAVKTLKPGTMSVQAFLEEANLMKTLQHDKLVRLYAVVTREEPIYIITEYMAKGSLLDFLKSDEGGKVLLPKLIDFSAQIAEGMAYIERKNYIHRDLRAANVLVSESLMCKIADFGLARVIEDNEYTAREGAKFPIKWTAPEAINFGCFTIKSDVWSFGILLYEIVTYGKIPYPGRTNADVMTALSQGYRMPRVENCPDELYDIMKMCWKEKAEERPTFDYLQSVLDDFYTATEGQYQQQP
Homeodomain-interacting protein kinase 1 (Homo sapiens), sequence (Q86Z02 whole entry, looked up): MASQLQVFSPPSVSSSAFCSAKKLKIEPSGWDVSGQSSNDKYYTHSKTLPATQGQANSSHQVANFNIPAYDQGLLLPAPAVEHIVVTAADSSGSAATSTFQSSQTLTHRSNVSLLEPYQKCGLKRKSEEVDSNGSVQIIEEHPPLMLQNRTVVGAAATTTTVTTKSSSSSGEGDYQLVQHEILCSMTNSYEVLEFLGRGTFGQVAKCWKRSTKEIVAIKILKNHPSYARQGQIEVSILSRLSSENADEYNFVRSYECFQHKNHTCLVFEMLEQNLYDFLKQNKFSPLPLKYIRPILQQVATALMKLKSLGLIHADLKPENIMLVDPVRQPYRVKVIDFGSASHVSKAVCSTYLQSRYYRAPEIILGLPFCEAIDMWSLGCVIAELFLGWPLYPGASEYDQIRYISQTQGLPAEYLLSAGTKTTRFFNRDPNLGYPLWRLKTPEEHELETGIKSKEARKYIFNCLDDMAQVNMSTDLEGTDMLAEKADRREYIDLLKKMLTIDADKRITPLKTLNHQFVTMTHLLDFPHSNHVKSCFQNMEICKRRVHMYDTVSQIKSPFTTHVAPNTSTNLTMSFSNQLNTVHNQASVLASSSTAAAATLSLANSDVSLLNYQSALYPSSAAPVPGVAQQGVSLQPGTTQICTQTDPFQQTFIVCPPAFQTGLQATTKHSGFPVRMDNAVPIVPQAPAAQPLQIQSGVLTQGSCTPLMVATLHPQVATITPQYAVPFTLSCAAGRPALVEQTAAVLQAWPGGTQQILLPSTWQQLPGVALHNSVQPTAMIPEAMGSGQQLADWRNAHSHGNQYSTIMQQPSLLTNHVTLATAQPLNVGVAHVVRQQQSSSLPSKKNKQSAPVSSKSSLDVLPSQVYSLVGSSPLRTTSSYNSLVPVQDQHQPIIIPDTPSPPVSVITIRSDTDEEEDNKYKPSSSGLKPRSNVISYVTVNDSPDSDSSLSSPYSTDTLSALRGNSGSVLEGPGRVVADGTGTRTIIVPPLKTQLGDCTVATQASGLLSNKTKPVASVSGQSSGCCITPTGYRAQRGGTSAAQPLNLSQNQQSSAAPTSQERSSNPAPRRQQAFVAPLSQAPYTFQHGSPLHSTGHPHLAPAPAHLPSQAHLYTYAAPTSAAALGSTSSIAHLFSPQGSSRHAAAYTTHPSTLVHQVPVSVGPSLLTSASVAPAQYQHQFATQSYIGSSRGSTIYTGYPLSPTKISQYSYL
Mitogen-activated protein kinase 9 (Homo sapiens), sequence (P45984 whole entry, looked up): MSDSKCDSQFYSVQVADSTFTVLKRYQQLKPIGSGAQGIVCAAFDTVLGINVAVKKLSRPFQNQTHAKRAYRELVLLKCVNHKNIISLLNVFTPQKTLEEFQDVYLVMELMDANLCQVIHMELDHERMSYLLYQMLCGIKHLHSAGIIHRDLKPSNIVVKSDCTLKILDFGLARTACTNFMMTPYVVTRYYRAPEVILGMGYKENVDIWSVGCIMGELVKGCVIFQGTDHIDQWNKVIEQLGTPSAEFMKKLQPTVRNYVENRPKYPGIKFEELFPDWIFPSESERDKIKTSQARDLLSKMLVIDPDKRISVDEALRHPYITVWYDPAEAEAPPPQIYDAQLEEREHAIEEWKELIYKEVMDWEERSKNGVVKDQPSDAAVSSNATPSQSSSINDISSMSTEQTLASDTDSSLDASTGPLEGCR
Tyrosine-protein kinase HCK (Homo sapiens), sequence (P08631 2-526 limits assumed): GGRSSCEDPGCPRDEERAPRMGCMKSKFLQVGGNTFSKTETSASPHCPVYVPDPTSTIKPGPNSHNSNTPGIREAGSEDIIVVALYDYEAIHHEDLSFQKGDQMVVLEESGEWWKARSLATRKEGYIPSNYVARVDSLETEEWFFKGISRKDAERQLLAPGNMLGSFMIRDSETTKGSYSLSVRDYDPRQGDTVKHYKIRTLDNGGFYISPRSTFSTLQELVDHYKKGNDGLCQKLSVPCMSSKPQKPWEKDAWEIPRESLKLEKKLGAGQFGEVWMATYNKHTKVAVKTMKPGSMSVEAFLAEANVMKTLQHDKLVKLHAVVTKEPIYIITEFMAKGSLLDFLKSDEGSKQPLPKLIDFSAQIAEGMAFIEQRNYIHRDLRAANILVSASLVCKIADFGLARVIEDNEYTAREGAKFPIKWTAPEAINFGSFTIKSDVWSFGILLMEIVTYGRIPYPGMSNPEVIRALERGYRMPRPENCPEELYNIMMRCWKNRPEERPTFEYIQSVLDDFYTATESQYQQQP
Transient receptor potential cation channel subfamily M member 7 (Homo sapiens), sequence (Q96QT4 whole entry): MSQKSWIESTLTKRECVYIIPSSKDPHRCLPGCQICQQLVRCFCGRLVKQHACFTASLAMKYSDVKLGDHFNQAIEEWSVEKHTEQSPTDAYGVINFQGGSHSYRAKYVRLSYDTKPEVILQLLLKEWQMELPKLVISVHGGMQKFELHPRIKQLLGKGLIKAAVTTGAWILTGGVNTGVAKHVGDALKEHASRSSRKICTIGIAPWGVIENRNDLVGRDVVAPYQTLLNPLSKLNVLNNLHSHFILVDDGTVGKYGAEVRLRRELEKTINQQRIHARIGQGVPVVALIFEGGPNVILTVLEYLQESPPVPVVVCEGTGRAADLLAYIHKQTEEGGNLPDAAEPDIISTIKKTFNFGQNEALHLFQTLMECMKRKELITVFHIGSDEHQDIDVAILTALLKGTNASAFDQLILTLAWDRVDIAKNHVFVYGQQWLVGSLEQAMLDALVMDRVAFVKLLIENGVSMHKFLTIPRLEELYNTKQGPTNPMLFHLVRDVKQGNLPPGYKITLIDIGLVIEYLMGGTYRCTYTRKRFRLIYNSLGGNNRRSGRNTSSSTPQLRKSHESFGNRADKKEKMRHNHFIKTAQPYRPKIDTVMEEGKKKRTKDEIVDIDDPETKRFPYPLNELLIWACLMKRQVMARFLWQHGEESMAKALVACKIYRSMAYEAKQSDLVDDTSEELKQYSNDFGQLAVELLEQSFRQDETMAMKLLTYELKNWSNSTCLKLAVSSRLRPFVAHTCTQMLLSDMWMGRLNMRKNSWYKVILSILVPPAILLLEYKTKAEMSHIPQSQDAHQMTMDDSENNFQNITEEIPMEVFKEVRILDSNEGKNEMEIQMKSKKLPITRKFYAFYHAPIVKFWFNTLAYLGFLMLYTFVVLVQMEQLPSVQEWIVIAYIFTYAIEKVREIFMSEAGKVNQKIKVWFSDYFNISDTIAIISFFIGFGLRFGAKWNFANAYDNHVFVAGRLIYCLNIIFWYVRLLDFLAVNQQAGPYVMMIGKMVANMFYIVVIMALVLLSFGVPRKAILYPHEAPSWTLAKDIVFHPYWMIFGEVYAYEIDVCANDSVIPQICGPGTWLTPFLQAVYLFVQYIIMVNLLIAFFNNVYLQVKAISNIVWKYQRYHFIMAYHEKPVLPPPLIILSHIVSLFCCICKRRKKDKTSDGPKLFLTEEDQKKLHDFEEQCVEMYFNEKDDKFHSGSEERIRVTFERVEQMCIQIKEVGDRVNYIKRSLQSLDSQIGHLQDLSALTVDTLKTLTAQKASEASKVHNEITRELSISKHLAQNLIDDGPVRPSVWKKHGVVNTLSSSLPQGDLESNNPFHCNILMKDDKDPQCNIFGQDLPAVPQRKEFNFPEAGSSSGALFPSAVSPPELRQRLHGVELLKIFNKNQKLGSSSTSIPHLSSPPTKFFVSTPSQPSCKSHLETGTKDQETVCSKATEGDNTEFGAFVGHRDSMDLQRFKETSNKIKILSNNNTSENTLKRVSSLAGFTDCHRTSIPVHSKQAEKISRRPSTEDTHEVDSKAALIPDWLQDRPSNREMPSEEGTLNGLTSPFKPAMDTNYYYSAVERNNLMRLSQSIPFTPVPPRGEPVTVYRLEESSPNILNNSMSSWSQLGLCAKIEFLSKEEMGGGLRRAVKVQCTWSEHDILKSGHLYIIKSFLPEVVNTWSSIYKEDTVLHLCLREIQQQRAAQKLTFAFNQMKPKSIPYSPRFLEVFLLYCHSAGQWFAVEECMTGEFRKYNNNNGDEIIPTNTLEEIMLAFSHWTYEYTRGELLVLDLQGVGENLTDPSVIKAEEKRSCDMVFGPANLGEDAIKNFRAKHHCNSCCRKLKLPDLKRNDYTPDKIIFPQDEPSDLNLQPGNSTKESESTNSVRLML

With `O=C(N[C@@H](C1CC1)C(F)(F)F)c1cc(-c2cnn3cc(-c4ccc(F)cc4)cnc23)cs1` as the molecule, how does the fold change (FC) [1] read?
The fold change (FC) was 1.07.

And the fold change (FC) [2]?
The fold change (FC) was 0.

`CC(C)[C@H](NC(=O)c1cc(-c2cnn3cc(-c4ccc(OCCN5CCCCC5)cc4)cnc23)cs1)C(F)(F)F` was tested. Which inhibition [3] did it give?
The inhibition was 0%.

And the fold change (FC) [4]?
The fold change (FC) was 0.22.

And the fold change (FC) [5]?
The fold change (FC) was 0.

With `CNC(=O)c1ccccc1Oc1nc(Nc2cc(OC)c(OC)c(OC)c2)ncc1Br` as the molecule, how does the inhibition [6] read?
Its inhibition is 11%.

And the inhibition [7]?
Its inhibition is 1%.

And the fold change (FC) [8]?
Its fold change (FC) is 0.

And the inhibition [9]?
The inhibition was 2%.
